Laboratory results as given in US12643954B2, “Anti-CD36 antibodies and their use to treat cancer” (ONA Therapeutics, S.L., priority 2020, dated 2026).

Legend:
Detroit 562 cells = assay: Detroit 562 orthotopic mouse model of oral cancer metastasis; format: in vivo; conditions: single agent; antibody 1 mg/kg i.p. daily, cisplatin 2 mg/kg twice weekly
Protocol: NOD scid gamma (NSG) (NOD.Cg-Prkdc^scidII2rg^tm1Wj1/SzJ) mice were purchased from Charles River and crossed in-house. All mice were housed under a regimen of 12h light/12h dark cycles and SPF conditions, and all procedures were evaluated and approved by the CEEA (Ethical Committee for Animal Experimentation) from the Government of Catalunya. SCC intra-tongue injection was performed as previously described (Oskarsson et al., 2014; Nieman et al., 2011). Briefly, mice were anesthetized by intraperitoneal injection with a mixture of 50 mg per kg of ketamine and 0.5 mg per kg of medetomidin, and SCC cells resuspended in 30 μl PBS were injected into each mouse tongue with a BD ultra-fine 6 mm needle. Mice were monitored for the luciferase bioluminescent signal immediately after injection (TO) and once weekly thereafter with a Xenogen IVIS Imaging System-100 (Caliper Life Sciences). Briefly, animals were injected by retro-orbital injection with 50 μl of D-luciferin (Promega) diluted in 1×PBS at 5 mg ml^−1. […] Data was quantified with the Living Image software version 4.4 (Caliper Life Sciences). Quantifications were calculated with unsaturated pixels. […]
Antibody treatments were administered via intraperitoneal (i.p.) injection daily at a dose of 1 mg/kg. […] Further, mouse body weight was measured twice weekly to update appropriate dosage amounts. […]

FaDu cells = assay: FaDu orthotopic mouse model of oral cancer metastasis; format: in vivo; conditions: single agent
Protocol: NOD scid gamma (NSG) (NOD.Cg-Prkdc^scidII2rg^tm1Wj1/SzJ) mice were purchased from Charles River and crossed in-house. All mice were housed under a regimen of 12h light/12h dark cycles and SPF conditions, and all procedures were evaluated and approved by the CEEA (Ethical Committee for Animal Experimentation) from the Government of Catalunya. SCC intra-tongue injection was performed as previously described (Oskarsson et al., 2014; Nieman et al., 2011). Briefly, mice were anesthetized by intraperitoneal injection with a mixture of 50 mg per kg of ketamine and 0.5 mg per kg of medetomidin, and SCC cells resuspended in 30 μl PBS were injected into each mouse tongue with a BD ultra-fine 6 mm needle. Mice were monitored for the luciferase bioluminescent signal immediately after injection (TO) and once weekly thereafter with a Xenogen IVIS Imaging System-100 (Caliper Life Sciences). Briefly, animals were injected by retro-orbital injection with 50 μl of D-luciferin (Promega) diluted in 1×PBS at 5 mg ml^−1. Continuous administration of isofluorane gas was provided to ensure anesthetizing animals during imaging. Data was quantified with the Living Image software version 4.4 (Caliper Life Sciences). Quantifications were calculated with unsaturated pixels. Color scale minimum and maximum values are shown in pictures.
Studies on the combination of the effects of the ONA-0-v1 anti-CD36 antibody, both with and without cisplatin, were performed in NSG mice (immuno-deficient). The studies included both male and female mice. All mice were inoculated with commercially available FaDu (ATCC) cancer cells, transduced with a retroviral vector expressing luciferase and the green fluorescent protein (Luc-GFP). FaDu cells were derived from a squamous cell carcinoma (i.e., from an oral cancer). Prior to inoculation, the FaDu cells were cultured in a humidified incubator at 37° C. with 5% CO2, and were grown in EMEM (LONZA) supplemented with 5 μg ml^−1 penicillin/streptomycin and 10% FBS (GIBCO).
For each mouse, 100,000 FaDu cells were inoculated via orthotopic injection.
Treatment of the inoculated mice began nine days after inoculation with the cancer cells. Inoculated mice were divided into four distinct treatment groups.
Antibody treatments were administered via intraperitoneal (i.p.) injection daily at a dose of 1 mg/kg. Cisplatin was administered twice weekly at a dose of 2 mg/kg (Groups 2 and 4). […] During the course of treatment, mice were observed once weekly using an in vivo imaging system (IVIS). Further, mouse body weight was measured twice weekly to update appropriate dosage amounts. At the end of the treatment period, the mice were sacrificed, and organs and tissues were collected for performance of immunohistochemistry analysis.

[1] = target: T1, cells overexpressing human CD36 (Homo sapiens, UniProt P16671); assay: FACS binding to cells overexpressing human CD36; conditions: serial dilution up to 100 nM
T1 construct: expressed in transfected cells
Protocol: For FACS analysis, cells were trypsinized, collected in a 15 mL tube and diluted in washing buffer (2% FBS in PBS). Cells were then centrifuged at 1500 rpm for 5 min at 4° C., supernatant was discarded, and cells were resuspended in fresh washing buffer. Anti-CD36 antibodies were either omitted (control wash buffer treatment) or serially diluted in washing buffer (dilution range up to 100 nM), and then added to the cells. Incubation was performed on ice for 1 hour. Cells were then centrifuged at 1500 rpm for 5 min at 4° C., supernatant was discarded, and cells were resuspended in fresh washing buffer. Finally, cells were incubated with a […] (BV421 Rat Anti-Mouse IgA, Becton Dickinson, reference 743293) diluted 1:100 in washing buffer, washed and analysed by FACS.

mouse CD36 = target: T2, mouse CD36 (Mus musculus, UniProt Q08857); assay: ELISA binding to plate-coated mouse CD36; conditions: recombinant mouse CD36 coated plates
T2 construct: purchased Sino Biological 50422-M08H
Protocol: (§1) To perform ELISA assays, 96-well ELISA plates were coated over night with human CD36 (Sino Biological, reference 10752-H08H) or mouse CD36 (Sino Biological, reference 50422-M08H) recombinant proteins at a concentration of 0.25 mg/ml. After two washes with PBS, plates were blocked with 4% skimmed milk in PBS for 1 hour at 37° C. Blocking solution was discarded and plates were washed five times with 200 μl/well PBS-Tween20 (0.5%). Primary antibodies were either omitted (control blocking solution treatment) or mixed in blocking solution at several dilutions ranging from 0.01 nM to 0.5 μM. The primary antibody solutions were added to the wells and incubated over night at 4° C. After 5 washes with 200 ul/well of PBS-Tween20 (0.5%), plates were incubated for 1 hour at room temperature with a goat anti-mouse HRP-conjugated antibody (Abeam, reference ab97235) diluted 1:2000 in blocking solution. Plates were then washed 5 times with 200 μl/well of PBS-Tween20 (0.5%), incubated with 100 μl/well TMB and detected after 10 minutes, 30 minutes, or 60 minutes with a spectrophotometer at a wave length of 630 nm.

CD36 = CD36 (Homo sapiens, UniProt P16671); assay: ELISA binding to plate-coated human CD36; design: purchased Sino Biological 10752-H08H; conditions: recombinant human CD36 coated plates
Protocol: as §1

T2 sequence (Q08857 30-439 limits assumed): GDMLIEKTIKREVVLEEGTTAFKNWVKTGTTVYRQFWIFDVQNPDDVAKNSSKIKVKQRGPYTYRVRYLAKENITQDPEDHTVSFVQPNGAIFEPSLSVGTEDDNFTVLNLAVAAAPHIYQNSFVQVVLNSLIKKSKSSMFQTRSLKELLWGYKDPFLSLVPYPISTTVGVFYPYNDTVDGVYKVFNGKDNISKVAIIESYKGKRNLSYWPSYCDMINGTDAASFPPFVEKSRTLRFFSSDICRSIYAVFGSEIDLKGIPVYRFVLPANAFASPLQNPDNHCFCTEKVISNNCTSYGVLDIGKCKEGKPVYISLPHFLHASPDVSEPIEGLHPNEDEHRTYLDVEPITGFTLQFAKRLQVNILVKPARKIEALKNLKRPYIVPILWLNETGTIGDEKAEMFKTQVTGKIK
T1 sequence (P16671 whole entry): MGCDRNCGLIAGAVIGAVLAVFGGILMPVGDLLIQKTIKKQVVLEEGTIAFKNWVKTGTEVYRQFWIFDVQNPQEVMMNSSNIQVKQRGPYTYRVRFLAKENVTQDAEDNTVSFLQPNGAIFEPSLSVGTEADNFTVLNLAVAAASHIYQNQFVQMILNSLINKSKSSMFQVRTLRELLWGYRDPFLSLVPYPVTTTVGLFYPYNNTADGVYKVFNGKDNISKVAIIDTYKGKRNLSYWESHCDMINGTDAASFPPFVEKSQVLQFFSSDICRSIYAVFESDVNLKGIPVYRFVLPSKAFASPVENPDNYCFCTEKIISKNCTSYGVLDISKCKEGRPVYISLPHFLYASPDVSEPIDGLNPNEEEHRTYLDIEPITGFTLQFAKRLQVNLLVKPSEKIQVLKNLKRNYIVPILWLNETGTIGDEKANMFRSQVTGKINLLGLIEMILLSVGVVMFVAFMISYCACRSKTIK
CD36, sequence (P16671 30-439 limits assumed): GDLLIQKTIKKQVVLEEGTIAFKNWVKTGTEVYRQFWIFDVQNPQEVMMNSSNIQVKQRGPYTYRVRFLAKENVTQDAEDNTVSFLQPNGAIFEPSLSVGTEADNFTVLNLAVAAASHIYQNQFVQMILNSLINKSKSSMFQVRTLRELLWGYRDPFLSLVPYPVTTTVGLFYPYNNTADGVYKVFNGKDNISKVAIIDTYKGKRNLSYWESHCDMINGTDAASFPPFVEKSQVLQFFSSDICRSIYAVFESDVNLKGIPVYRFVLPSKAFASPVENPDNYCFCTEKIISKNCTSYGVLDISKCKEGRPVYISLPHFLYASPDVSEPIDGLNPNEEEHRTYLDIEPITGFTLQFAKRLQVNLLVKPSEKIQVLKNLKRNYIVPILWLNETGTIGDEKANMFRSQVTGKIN

Molecule: N.N.[Cl][Pt][Cl] [cisplatin, reference compound]
- size of lung metastases (Detroit 562 cells): did reduce the size
- mice in which metastasis into lymph nodes was prevented (FaDu cells; eight tested mice per group): one of the eight
- effect on primary tumor (IVIS imaging and H&E staining) (FaDu cells; antibody 1 mg/kg i.p. daily, cisplatin 2 mg/kg twice weekly): inhibited tumor growth

B1: 1G06: chimeric ONA-0-v1 IgG1 antibody; heavy chain SEQ ID NO: 64, light chain SEQ ID NO: 23 (antibody)
heavy: QVQLKQSGADLVRPGASVKLSCKASGYTFTDYYINWVKQRPGQGLEWIARIYPGSGNTYYNEKFKGKATLTAEKSSSTAYMQLSSLTSEDSAVYFCARGIGGGFGMDYWGQGTSVTVSSASTKGPSVFPLAPSSKSTSGGTAALGCLVKDYFPEPVTVSWNSGALTSGVHTFPAVLQSSGLYSLSSVVTVPSSSLGTQTYICNVNHKPSNTKVDKKVEPKSCDKTHTCPPCPAPESTRGPSVFLFPPKPKDTLMISRTPEVTCVVVDVSHEDPEVKFNWYVDGVEVHNAKTKPREEQYNSTYRVVSVLTVLHQDWLNGKEYKCKVSNKALPAPIEKTISKAKGQPREPQVYTLPPSRDELTKNQVSLTCLVKGFYPSDIAVEWESNGQPENNYKTTPPVLDSDGSFFLYSKLTVDKSRWQQGNVFSCSVMHEALHNHYTQKSLSLSPGK
light: SIVMTQTPKFLLVSAGDRITITCKASQSVSDDVAWYQQKPGQSPKLLIYYASNRYTGVPDRFTGSGYGTDFTFTISTVQAEDLAVYFCQQDYSSPLTFGAGTKLEIKRTVAAPSVFIFPPSDEQLKSGTASVVCLLNNFYPREAKVQWKVDNALQSGNSQESVTEQDSKDSTYSLSSTLTLSKADYEKHKVYACEVTHQGLSSPVTKSFNRGEC
- binding to cells overexpressing human CD36 (FACS) [1]: bound equivalently

B2: ONA-0-v2: murine IgA antibody; heavy chain SEQ ID NO: 5, light chain SEQ ID NO: 9 (antibody)
heavy: QVQLKQSGADLVRPGASVKLSCKASGYTFTDYYINWVKQRPGQGLEWIARIYPGSGNTYYNEKFKGKATLTAEKSSSTAYMQLSSLTSEDSAVYFCARGIGGGFGMDYWGQGTSVTVSSESARNPTIYPLTLPPVLCSDPVIIGCLIHDYFPFGTMNVTWGKSGKDITTVNFPPALASGGRYTMSSQLTLPAVECPEGESVKCSVQHDSNPVQELDVNCSPTPPPPITIPSCQPSLSLQRPALEDLLLGSDASITCTLNGLRNPEGAAFTWEPSTGKDAVQKKAAQNSCGCYSVSSVLPGCAERWNSGASFKCTVTHPESGTLTGTIAKVTVNTFPPQVHLLPPPSEELALNELLSLTCLVRAFNPKEVLVRWLHGNEELSPESYLVFEPLKEPGEGATTYLVTSVLRVSAETWKQGDQYSCMVGHEALPMNFTQKTIDRLSGKPTNVSVSVIMSEGDGICY
light: NIVMTQSPKSMSMSVGERVTLTCKASENVVTYVSWYQQKPEQSPKLLIYGASNRYTGVPDRFTGSGSATDFTLTISSVQAEDLADYHCGQGYSYPYTFGGGTKLEIKRADAAPTVSIFPPSSEQLTSGGASVVCFLNNFYPKDINVKWKIDGSERQNGVLNSWTDQDSKDSTYSMSSTLTLTKDEYERHNSYTCEATHKTSTSPIVKSFNRNEC
modifications: ONA-0-v1 heavy chain; ONA-0-v2 light chain
- binding to mouse CD36 in ELISA (mouse CD36): did not interact
- binding to human CD36 in ELISA (CD36): did not interact
